According to BindingDB's records for patent US9694016 (Novartis AG, 2017):

biological target: RAF proto-oncogene serine/threonine-protein kinase [Y340E,Y341E] (Human, UniProt P04049, Y340E/Y341E); assay: Raf Activity Assay; conditions: pH 7.5; 25 °C
Sequence (P04049 whole entry Y340E/Y341E): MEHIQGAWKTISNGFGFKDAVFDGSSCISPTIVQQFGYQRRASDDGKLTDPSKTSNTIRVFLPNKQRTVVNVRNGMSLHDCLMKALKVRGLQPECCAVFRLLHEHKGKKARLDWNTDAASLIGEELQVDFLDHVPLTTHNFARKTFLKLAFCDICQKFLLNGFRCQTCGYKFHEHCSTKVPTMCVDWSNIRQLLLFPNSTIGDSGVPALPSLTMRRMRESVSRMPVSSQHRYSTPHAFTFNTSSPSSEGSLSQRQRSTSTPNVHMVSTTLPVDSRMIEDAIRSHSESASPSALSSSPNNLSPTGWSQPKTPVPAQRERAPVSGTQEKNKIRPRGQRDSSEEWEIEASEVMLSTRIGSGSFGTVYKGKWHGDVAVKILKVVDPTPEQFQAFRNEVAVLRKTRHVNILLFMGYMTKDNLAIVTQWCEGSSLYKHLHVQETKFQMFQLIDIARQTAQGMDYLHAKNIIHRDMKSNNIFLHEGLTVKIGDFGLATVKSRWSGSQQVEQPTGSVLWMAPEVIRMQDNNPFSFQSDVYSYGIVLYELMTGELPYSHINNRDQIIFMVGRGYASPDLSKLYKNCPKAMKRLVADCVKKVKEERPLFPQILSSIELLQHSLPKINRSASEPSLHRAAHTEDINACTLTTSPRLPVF

Compound | IC50 [nM]
CCNc1nc(-c2cc(NC(=O)c3ccnc(C(C)(F)F)c3)cnc2C)cc(N2CCOCC2)n1 [US9694016, 725] | 1.2
CNC(=O)C1CN(c2cc(-c3cc(NC(=O)c4cccc(C(F)(F)F)c4)cnc3C)nn3ccnc23)CCO1 (stereo unspecified) [US9694016, 874] | 3.4
Cc1ccc(NC(=O)c2ccnc(C3CC3)c2)cc1-c1cc(N2CCOCC2)c(=O)n(C)n1 [US9694016, 656] | 0.3
Cc1ncc(NC(=O)c2ccnc(C(C)(C)C#N)c2)cc1-c1cnc(OC(F)F)c(N2CCOCC2)c1 [US9694016, 225] | 3.9
COc1nnc(-c2cc(NC(=O)c3ccnc(C(C)(C)F)c3)cnc2C)cc1N1CCOCC1 [US9694016, 608] | 2
CCNc1nc(-c2cc(NC(=O)c3cccc(S(C)(=O)=O)c3)ccc2C)cc(N2CCOCC2)n1 [US9694016, 704] | 0.08
Cc1ncc(NC(=O)c2cc(CN(C)C)cc(C(F)(F)F)c2)cc1-c1cc(N2CCOCC2)c(=O)n(C)c1 [US9694016, 401] | 12
Cc1ccc(NC(=O)c2ccnc(C(C)(C)C#N)c2)cc1-c1cc(N2CCOCC2)nc(OC2CNC2)n1 [US9694016, 777] | 0.08
CCOc1nc(-c2cc(NC(=O)c3ccnc(C(C)C)c3)ccc2C)cc(N2CCOCC2)n1 [US9694016, 763] | 0.2

Continued by falling IC50, values first:

IC50 [nM] | Compound
200 | Cn1cc(-c2cc(NC(=O)c3ccnc(C(C)(F)F)c3)ccc2C#N)cc(N2CCOCC2)c1=O [US9694016, 416]
9.4 | Cc1ncc(NC(=O)c2ccnc(C(C)(F)F)c2)cc1-c1cc(N2CCOC[C@@H]2C)n(C)c(=O)c1 [US9694016, 526]
6.6 | Cc1ncc(NC(=O)c2cnnc(C(C)(C)C#N)c2)cc1-c1cc(N2CCOCC2)c(OC2CCOCC2)nn1 [US9694016, 635]
1.33 | Cc1ncc(NC(=O)c2ccnc(C3(C#N)CC3)c2)cc1-c1cnc(OC2CCOCC2)c(N2CCOCC2)c1 [US9694016, 940]
0.8 | Cc1ncc(NC(=O)c2ccnc(C(C)(F)F)c2)cc1-c1cnc(C#N)c(N2CCOCC2)c1 [US9694016, 250]
0.5 | CCOc1nnc(-c2cc(NC(=O)c3cccc(C(F)F)c3)cnc2C)cc1N1CCOCC1 [US9694016, 619]
0.2 | CCOc1nnc(-c2cc(NC(=O)c3ccnc(C(F)(F)F)c3)ccc2C)cc1N1CCOCC1 [US9694016, 566]
